Where two headings read alike, the source gives them in different places. Square brackets hold non-standard residues; d marks the D form. Peptide text beside a SMILES is read from it. * marks the point of attachment. Lauroyl = CCCCCCCCCCCC(=O)*
Columns and labels:
[1] = test system: X. fastidiosa subsp. fastidiosa IVIA 5387.2; format: cell-based, Xylella fastidiosa
[2] = test system: X. fastidiosa subsp. fastidiosa IVIA 5387.2; conditions: for log reduction of cell viability: 3 h, 50 μM

Row | Compound | Biofilm formation Level (antibiofilm activity) [1] | Biofilm formation Ratio (treatment/NTC) [1] | Planktonic cells Ratio (treatment/NTC) [1] | Bactericidal activity: Reduction in viability (Log N0/N) [2] [Log N0/N] | also measured
1 | CC[C@H](C)[C@H](NC(=O)CN)C(=O)NCC(=O)N[C@@H](CCCCN)C(=O)N[C@@H](Cc1ccccc1)C(=O)N[C@@H](CC(C)C)C(=O)N[C@@H](Cc1c[nH]cn1)C(=O)N[C@@H](CO)C(=O)N[C@@H](C)C(=O)N[C@@H](CCCCN)C(N)=O [Magainin 2(1-10)] (H-GIGKFLHSAK-NH2) | Low (key: High: high antibiofilm activity (ratio of biofilm formation from 0.01 to 0.2); Moderate: moderate activity (ratio from 0.29 to 0.47); Low: low activity (ratio from 0.72 to 0.77)) | 0.77 ± 0.02 | 1.67 ± 0.07 | 0.00 ± 0.06 | –
2 | CC[C@H](C)[C@H](NC(=O)[C@H](CCCNC(=N)N)NC(=O)[C@@H](NC(=O)[C@H](Cc1c[nH]c2ccccc12)NC(=O)[C@@H](NC(=O)[C@@H](NC(=O)[C@@H](N)CCCNC(=N)N)[C@@H](C)CC)C(C)C)C(C)C)C(=O)N[C@@H](CCCNC(=N)N)C(=O)N[C@@H](CCCNC(=N)N)C(=O)N[C@@H](Cc1c[nH]c2ccccc12)C(=O)N[C@@H](Cc1ccccc1)C(=O)N[C@H](C(N)=O)C(C)C [RJK2] (H-RIVWVRIRRWFV-NH2) | – | – | – | – | Biofilm formation Level (antibiofilm activity) ([1]; 50 µM): High (key: High: high antibiofilm activity (ratio of biofilm formation from 0.01 to 0.2); Moderate: moderate activity (ratio from 0.29 to 0.47); Low: low activity (ratio from 0.72 to 0.77)); Biofilm formation Ratio (treatment/NTC) ([1]; 50 µM): 0.02 ± 0.00; Planktonic cells Ratio (treatment/NTC) ([1]; 50 µM): 1.54 ± 0.07; Bactericidal activity: Reduction in viability (Log N0/N) ([2]; 50 µM): 0.70 ± 0.08 Log N0/N; Hemolysis (horse erythrocytes; 150 µM): 19.2 ± 3.1%; Hemolysis (horse erythrocytes; 250 µM): 29.6 ± 2.2%; Hemolysis (horse erythrocytes; 375 µM): 50.2 ± 5.4%
3 | CC[C@H](C)[C@H](NC(=O)[C@H](CCCNC(=N)N)NC(=O)[C@H](Cc1ccccc1)NC(=O)[C@H](CCC(N)=O)NC(=O)[C@@H](N)C(C)C)C(=O)N[C@@H](CCCNC(=N)N)C(=O)N[C@H](C(=O)N[C@@H](CCCNC(=N)N)C(=O)N[C@H](C(=O)N[C@H](C(=O)N[C@H](C(=O)N[C@@H](CCCNC(=N)N)C(=O)N[C@@H](CCCCN)C(N)=O)[C@@H](C)CC)C(C)C)[C@@H](C)CC)C(C)C [Peptide 1036] (H-VQFRIRVRIVIRK-NH2) | High (key: High: high antibiofilm activity (ratio of biofilm formation from 0.01 to 0.2); Moderate: moderate activity (ratio from 0.29 to 0.47); Low: low activity (ratio from 0.72 to 0.77)) | – | 2.16 ± 0.06 | – | log reduction [2]: 3.48 log
4 | CC[C@H](C)[C@H](NC(=O)[C@H](C)NC(=O)[C@H](CCCCN)NC(=O)[C@@H]1CCCN1C(=O)[C@@H](NC(=O)[C@H](CC(C)C)NC(=O)[C@H](CO)NC(=O)[C@H](Cc1ccccc1)NC(=O)[C@H](CC(C)C)NC(=O)[C@@H](N)Cc1ccccc1)[C@@H](C)CC)C(=O)NCC(=O)NCC(=O)N[C@@H](CC(C)C)C(=O)N[C@H](C(=O)N[C@@H](CO)C(=O)N[C@@H](C)C(=O)N[C@@H](Cc1ccccc1)C(=O)N[C@@H](CCCCN)C(N)=O)[C@@H](C)CC [AamAP-S1] | – | – | – | 2.45 ± 0.09 | Effect on X. fastidiosa growth in the antibiofilm test [1]: affected X. fastidiosa’s growth; log reduction of cell viability [2]: 2-3 log
5 | CCCCCCCCCCCC(=O)N[C@H](C(=O)N[C@@H](CC(C)C)C(=O)N1CCC[C@H]1C(=O)N[C@H](Cc1ccccc1)C(=O)N[C@@H](CCCCN)C(=O)N[C@H](Cc1ccccc1)C(=O)N1CCC[C@H]1C(=O)N[C@H](Cc1ccccc1)C(=O)N[C@H](Cc1ccccc1)C(=O)N1CCC[C@H]1C(=O)N[C@H](Cc1ccccc1)C(=O)N[C@@H](CCCNC(=N)N)C(=O)N[C@@H](CCCNC(=N)N)C(N)=O)[C@@H](C)CC [BP528] (Lauroyl-ILP[dF]K[dF]P[dF][dF]P[dF]RR-NH2) | – | – | – | – | Biofilm formation Level (antibiofilm activity) ([1]; 50 µM): High (key: High: high antibiofilm activity (ratio of biofilm formation from 0.01 to 0.2); Moderate: moderate activity (ratio from 0.29 to 0.47); Low: low activity (ratio from 0.72 to 0.77)); Biofilm formation Ratio (treatment/NTC) ([1]; 50 µM): 0.03 ± 0.01; Planktonic cells Ratio (treatment/NTC) ([1]; 50 µM): 0.99 ± 0.06; Bactericidal activity: Reduction in viability (Log N0/N) ([2]; 50 µM): 0.61 ± 0.12 Log N0/N; Hemolysis (horse erythrocytes; 150 µM): 92.1 ± 5.7%; Hemolysis (horse erythrocytes; 250 µM): 96.6 ± 3.1%; Hemolysis (horse erythrocytes; 375 µM): 99.1 ± 8.0%
6 | CC[C@@H](C)[C@@H](NC(=O)[C@H](N)CCCNC(=N)N)C(=O)N[C@@H](C(=O)N[C@H](Cc1c[nH]c2ccccc12)C(=O)N[C@@H](C(=O)N[C@H](CCCNC(=N)N)C(=O)N[C@@H](C(=O)N[C@H](CCCNC(=N)N)C(=O)N[C@H](CCCNC(=N)N)C(=O)N[C@H](Cc1c[nH]c2ccccc12)C(=O)N[C@H](Cc1ccccc1)C(=O)N[C@@H](C(N)=O)C(C)C)[C@H](C)CC)C(C)C)C(C)C [RIJK2] (H-[dR][dI][dV][dW][dV][dR][dI][dR][dR][dW][dF][dV]-NH2) | High (key: High: high antibiofilm activity (ratio of biofilm formation from 0.01 to 0.2); Moderate: moderate activity (ratio from 0.29 to 0.47); Low: low activity (ratio from 0.72 to 0.77)) | – | 1.43 ± 0.09 | – | –
7 | Cecropin B | – | – | – | – | Bactericidal activity: Reduction in viability (Log N0/N) ([2]; 3.1 µM): 2.13 ± 0.10 Log N0/N; Bactericidal activity: Reduction in viability (Log N0/N) ([2]; 12.5 μM): 3.19 ± 0.06 Log N0/N; log reduction ([2]; 12.5 μM): 3.19 log; Bactericidal activity: Reduction in viability (Log N0/N) ([2]; 50 µM): 4.00 ± 0.10 Log N0/N
8 | CC[C@H](C)[C@H](NC(=O)[C@H](CCCNC(=N)N)NC(=O)[C@H](CCCNC(=N)N)NC(=O)[C@H](CC(C)C)NC(=O)[C@@H](N)Cc1c[nH]c2ccccc12)C(=O)N[C@@H](CCCCN)C(=O)N[C@@H](C)C(=O)N[C@@H](Cc1c[nH]c2ccccc12)C(=O)N[C@@H](CC(C)C)C(=O)N[C@@H](CCCNC(=N)N)C(=O)N[C@@H](CCCNC(=N)N)C(=O)N[C@@H](CCCCN)C(=O)N[C@@H](CCCNC(=N)N)C(=O)N[C@@H](CCCCN)C(N)=O [RR3-NH2] (H-WLRRIKAWLRRKRK-NH2) | Moderate (key: High: high antibiofilm activity (ratio of biofilm formation from 0.01 to 0.2); Moderate: moderate activity (ratio from 0.29 to 0.47); Low: low activity (ratio from 0.72 to 0.77)) | 0.29 ± 0.01 | 1.66 ± 0.09 | 0.89 ± 0.09 | –
9 | CC[C@H](C)[C@H](NC(=O)[C@H](Cc1c[nH]c2ccccc12)NC(=O)[C@H](CCCCN)NC(=O)[C@H](CCCCN)NC(=O)[C@@H](NC(=O)[C@H](CCCNC(=N)N)NC(=O)[C@H](CCCNC(=N)N)NC(=O)[C@@H](NC(=O)[C@@H](N)Cc1c[nH]c2ccccc12)[C@@H](C)CC)[C@@H](C)CC)C(=O)N[C@@H](CCCNC(=N)N)C(=O)N[C@@H](CCCNC(=N)N)C(=O)N[C@H](C(=O)N[C@@H](Cc1c[nH]cn1)C(=O)N[C@@H](CCCCN)C(N)=O)C(C)C [RR2-NH2] (H-WIRRIKKWIRRVHK-NH2) | High (key: High: high antibiofilm activity (ratio of biofilm formation from 0.01 to 0.2); Moderate: moderate activity (ratio from 0.29 to 0.47); Low: low activity (ratio from 0.72 to 0.77)) | 0.13 ± 0.01 | 2.13 ± 0.07 | 1.43 ± 0.12 | –
10 | CC[C@H](C)[C@H](NC(=O)[C@H](C)NC(=O)[C@H](CCCNC(=N)N)NC(=O)[C@@H]1CCCN1C(=O)[C@@H](NC(=O)[C@H](CC(C)C)NC(=O)[C@H](CO)NC(=O)[C@H](Cc1ccccc1)NC(=O)[C@H](CC(C)C)NC(=O)[C@@H](N)Cc1ccccc1)[C@@H](C)CC)C(=O)NCC(=O)NCC(=O)N[C@@H](CC(C)C)C(=O)N[C@H](C(=O)N[C@@H](CO)C(=O)N[C@@H](C)C(=O)N[C@@H](Cc1ccccc1)C(=O)N[C@@H](CCCCN)C(N)=O)[C@@H](C)CC [AamAP-R] | – | – | – | 0.78 ± 0.01 | Effect on X. fastidiosa growth in the antibiofilm test [1]: affected X. fastidiosa’s growth
11 | CC[C@H](C)[C@H](NC(=O)[C@H](CCCNC(=N)N)NC(=O)[C@H](CCCNC(=N)N)NC(=O)[C@H](CC(C)C)NC(=O)[C@H](Cc1c[nH]c2ccccc12)NC(=O)[C@H](C)NC(=O)[C@H](CCCCN)NC(=O)[C@@H](NC(=O)[C@H](CCCNC(=N)N)NC(=O)[C@H](CCCNC(=N)N)NC(=O)[C@H](CC(C)C)NC(=O)[C@@H](N)Cc1c[nH]c2ccccc12)[C@@H](C)CC)C(=O)N[C@@H](CCCCN)C(=O)N[C@@H](C)C(N)=O [RR4-NH2] | High (key: High: high antibiofilm activity (ratio of biofilm formation from 0.01 to 0.2); Moderate: moderate activity (ratio from 0.29 to 0.47); Low: low activity (ratio from 0.72 to 0.77)) | 0.20 ± 0.01 | 1.84 ± 0.05 | 2.08 ± 0.09 | log reduction of cell viability [2]: 2-3 log
12 | CC[C@H](C)[C@H](NC(=O)[C@H](CCCNC(=N)N)NC(=O)[C@H](Cc1ccccc1)NC(=O)[C@H](CCC(N)=O)NC(=O)[C@@H](N)CCCCN)C(=O)N[C@@H](CCCNC(=N)N)C(=O)N[C@H](C(=O)N[C@@H](CCCNC(=N)N)C(=O)N[C@H](C(N)=O)C(C)C)C(C)C [Peptide 1029] (H-KQFRIRVRV-NH2) | High (key: High: high antibiofilm activity (ratio of biofilm formation from 0.01 to 0.2); Moderate: moderate activity (ratio from 0.29 to 0.47); Low: low activity (ratio from 0.72 to 0.77)) | 0.20 ± 0.01 | 1.71 ± 0.04 | 1.18 ± 0.08 | –

From PMC8606745 (Frontiers in Microbiology, 2021)
